Results taken from patent US6958331B1, “Bradykinin receptor antagonists” (Novartis AG, priority 1999, dated 2005).

Biological target: T1, human bradykinin B1 receptor (Homo sapiens, UniProt P46663)
T1 construct: expressed in transfected cells; membranes
T1 sequence (P46663 1-353): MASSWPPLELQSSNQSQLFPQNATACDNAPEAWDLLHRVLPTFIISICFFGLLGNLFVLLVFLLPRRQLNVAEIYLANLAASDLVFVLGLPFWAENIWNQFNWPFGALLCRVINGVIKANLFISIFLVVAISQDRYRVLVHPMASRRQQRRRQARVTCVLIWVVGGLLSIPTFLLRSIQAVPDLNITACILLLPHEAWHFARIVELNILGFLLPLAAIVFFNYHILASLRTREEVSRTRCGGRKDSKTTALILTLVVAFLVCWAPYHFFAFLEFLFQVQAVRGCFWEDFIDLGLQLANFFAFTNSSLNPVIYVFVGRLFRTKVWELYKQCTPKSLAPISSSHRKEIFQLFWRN
Experiment: Test I: Bradykinin Receptor Binding Assay ([3H]desArg10-kallidin displacement, HEK 293 membranes)
Details: statement in words
Protocol: This cDNA is sequenced and subcloned into pcDNA3 (Clontech) and used to generate a cell-line which expresses the human bradykinin B1 receptor.
Cells are grown in Mininum Essential Medium with Eade's Salts (GIBCO) supplemented with 2 mM L-glutamine, 100 units/ml penicillin, 100 μg/ml streptomycin, 1% nonessential amino acids and 10% myodone foetal calf serum (GIBCO) in a humidified atmosphere with 5% CO2 at 37° C.
One 175 cm^2 flask with approximately 50% confluent cells is transfected with approximately 30 μg/ml HB1-pcDNA3 DNA using the calcium phosphate precipitate method of transfection. The flask of transfected cells is split 1:3 on day 2 post transfecdon to prevent overgrowth. The following day the cells are split 1:5 and selection in 700 μg/ml G418 begins. The selective medium is changed every 3-4 days. When distinct G418 resistant colonies of transfected cells are seen, approximately 4 weeks after transfection, the cells are cloned by limiting dilution and assayed for binding of [^3H]desArg^10-kallidin. […]
Specific binding to the bradykinin B1 receptor is defined as the difference between that found in total bound tubes and that found in non-specific binding tubes. […] Mimoscintillant-40 Liquid scintillant is added to the filters and radioactivity bound is determined in a Canberra Packard Topcount scintillation counter. […]

CC(C)N1CCN(C(=O)C2CCN(S(=O)(=O)c3ccc(NCC(c4ccccc4)c4ccccc4)c(C(=O)N4CCOCC4)c3)CC2)CC1 [Example 1, {2-(2,2-diphenyl-ethylamino)-5-[4-(4-Isopropyl-piperazine-1-carbonyl)-piperidine-1-sulfonyl]-pheny}-morpholin-4-yl-methanone]
active at the human B1 bradykinin receptor: active
